Measurements published in ChEMBL document CHEMBL5614431, “Discovery of 1,3,4-oxadiazoles with slow-action activity against Plasmodium falciparum malaria parasites” (Eur J Med Chem, 2024).

Key:
Plasmodium falciparum [1] = assay: Antimalarial activity against synchronous ring stage Plasmodium falciparum 3D7 infected in human Erythrocyte assessed as inhibition of parasite growth incubated for 48 hrs by [3H]-hypoxanthine incorporation assay; type: functional, organism-based; conditions: 3D7, Erythrocyte
Plasmodium falciparum [2] = assay: Antimalarial activity against synchronous ring stage Plasmodium falciparum 3D7 infected in human Erythrocyte assessed as inhibition of parasite growth incubated for 96 hrs by [3H]-hypoxanthine incorporation assay; type: functional, organism-based; conditions: 3D7, Erythrocyte
[3] = Selectivity ratio of IC50 for antimalarial activity against synchronous ring stage Plasmodium falciparum 3D7 infected in human Erythrocyte assessed as inhibition of parasite growth incubated for 48 hrs by [3H]-hypoxanthine incorporation assay to IC50 for antimalarial activity against synchronous ring stage Plasmodium falciparum 3D7 infected in human Erythrocyte assessed as inhibition of parasite growth incubated for 48 hrs by [3H]-hypoxanthine incorporation assay; type: functional
[4] = Cytotoxicity against human NFF cells assessed as reduction in cell viability incubated for 72 hrs by SRB assay; type: toxicity, cell-based
[5] = Selectivity index, ratio of IC50 for cytotoxicity against human NFF cells to IC50 for antimalarial activity against synchronous ring stage Plasmodium falciparum 3D7 infected in human Erythrocyte assessed as inhibition of parasite growth incubated for 96 hrs; type: toxicity, cell-based; conditions: read-out: Ratio IC50
Plasmodium falciparum [6] = assay: Antimalarial activity against multidrug-resistant synchronous ring stage Plasmodium falciparum Dd2 infected in human Erythrocyte assessed as inhibition of parasite growth incubated for 48 hrs by [3H]-hypoxanthine incorporation assay; type: functional, organism-based
Plasmodium falciparum [7] = assay: Antimalarial activity against multidrug-resistant synchronous ring stage Plasmodium falciparum Dd2 infected in human Erythrocyte assessed as inhibition of parasite growth incubated for 96 hrs by [3H]-hypoxanthine incorporation assay; type: functional, organism-based
[8] = Selectivity ratio of IC50 for antimalarial activity against multidrug-resistant synchronous ring stage Plasmodium falciparum Dd2 infected in human Erythrocyte assessed as inhibition of parasite growth incubated for 48 hrs by [3H]-hypoxanthine incorporation assay to IC50 for antimalarial activity against multidrug-resistant synchronous ring stage Plasmodium falciparum Dd2 infected in human …; type: functional
Plasmodium falciparum [9] = assay: Resistance index, ratio of IC50 for antimalarial activity against multidrug-resistant synchronous ring stage Plasmodium falciparum Dd2 infected in human Erythrocyte assessed as inhibition of parasite growth incubated for 96 hrs by [3H]-hypoxanthine incorporation assay to IC50 for antimalarial activity against synchronous ring stage Plasmodium falciparum 3D7 infected in human Erythrocyte assessed …; type: toxicity, organism-based
Plasmodium falciparum [10] = assay: Antimalarial activity against synchronous ring stage Plasmodium falciparum 3D7 infected in human Erythrocyte assessed as inhibition of parasite growth incubated for 96 hrs supplemented with IPP by [3H]-hypoxanthine incorporation assay; type: functional, organism-based; conditions: 3D7, Erythrocyte
[11] = Selectivity ratio of IC50 for antimalarial activity against synchronous ring stage Plasmodium falciparum 3D7 infected in human Erythrocyte assessed as inhibition of parasite growth incubated for 96 hrs supplemented with IPP by [3H]-hypoxanthine incorporation assay to IC50 for antimalarial activity against synchronous ring stage Plasmodium falciparum 3D7 infected in human Erythrocyte assessed as …; type: functional
[12] = Metabolic stability in human liver microsomes assessed as half life; type: ADME, Microsome
[13] = Metabolic stability in mouse liver microsomes assessed as half life; type: ADME, Microsome
[14] = Apparent permeability of the compound in human Caco-2 cells across apical to basolateral side; type: ADME, cell-based
[15] = Cmax in non fasted female BALB/c mouse plasma at 100 mg/kg, po via gavage and measured upto 24 hrs by LC-MS analysis; type: ADME, organism-based
[16] = Tmax in non fasted female BALB/c mouse at 100 mg/kg, po via gavage and measured upto 24 hrs by LC-MS analysis; type: ADME, organism-based; conditions: in vivo
[17] = AUC (0 to t) in non fasted female BALB/c mouse plasma at 100 mg/kg, po via gavage and measured after 7.5 hrs by LC-MS analysis; type: ADME, organism-based

SMILES | IC50 (Plasmodium falciparum [1]) [µM] | IC50 (Plasmodium falciparum [2]) [µM] | Ratio IC50 [3] | IC50 at 72 h [4] [µM] | selectivity ratio at 96 h [5] | other results
CC1CCN(c2nnc(S(=O)(=O)Cc3ccc(Cl)c(Cl)c3)o2)CC1 | 11.5 | 0.16 | 72 | 26 | 162 | IC50 (Plasmodium falciparum [6]): 10.1 µM; IC50 (Plasmodium falciparum [7]): 0.07 µM; Ratio IC50 [8]: 145; Ratio IC50 (Plasmodium falciparum [9]): 0.4; IC50 (Plasmodium falciparum [10]): 0.2 µM; Ratio IC50 [11]: 1; half-life [12]: 3 min; half-life [13]: < 2 min
O=S(=O)(c1nnc(N2CCCCCC2)o1)C1CCCCC1 | > 10 | 0.09 | >114 | > 100 | > 1150 | half-life [12]: 68 min; half-life [13]: 7 min
CCC[C@@H]1C[C@@H](C(=O)N[C@@H]([C@H]2O[C@H](SC)[C@H](O)[C@@H](O)[C@H]2O)[C@H](C)Cl)N(C)C1 [CLINDAMYCIN] | – | – | – | – | – | IC50 (Plasmodium falciparum [10]): > 25 µM; Ratio IC50 [11]: 3571
O=S(=O)(c1nnc(N2CCC3(CC2)COC3)o1)C1CCCCC1 | > 10 | 0.1 | >102 | > 100 | > 1020 | half-life [12]: 112 min; half-life [13]: 18 min; Papp A→B [14]: 44 ×10⁻⁶ cm/s
O=S(=O)(c1nnc(N2C3CCCC2CC3)o1)C1CCCCC1 | > 25 | 0.41 | >61 | > 100 | > 246 | –
O=S(=O)(c1nnc(N2CCC(F)(F)CC2)o1)C1CCCCC1 | > 12.5 | 0.72 | >17 | > 100 | > 127 | –
O=S(=O)(c1nnc(N2CCCC3(COC3)C2)o1)C1CCCCC1 | > 50 | 0.54 | >93 | > 100 | > 185 | –
O=S(=O)(c1nnc(N2CCCCC2)o1)C1CCCCC1 | > 12.5 | 0.4 | >32 | > 100 | > 250 | –
O=S(=O)(CC1CCCCC1)c1nnc(N2CCOCC2)o1 | 17.6 | 0.39 | 45 | 59 | 151 | –
CC1CCCCN1c1nnc(S(=O)(=O)C2CCCCC2)o1 (racemic) | > 12.5 | 0.31 | >40 | > 100 | > 277 | –
O=S(=O)(c1nnc(N2CC3CCC(C2)O3)o1)C1CCCCC1 | > 50 | 0.1 | >500 | > 100 | > 1000 | –
O=S(=O)(c1nnc(N2CC3CCC2C3)o1)C1CCCCC1 (racemic) | > 25 | 0.56 | >45 | > 100 | > 179 | –
O=S(=O)(c1nnc(N2CCOCC2)o1)C1CC2CCC1C2 (racemic) | > 10 | 0.28 | >36 | > 100 | > 377 | –
CC(=O)N1CCN(c2nnc(S(=O)(=O)C3CCCCC3)o2)CC1 | > 50 | 1.46 | >34 | > 100 | > 69 | –
O=S(=O)(c1nnc(N2CCC3(CCCO3)CC2)o1)C1CCCCC1 | > 50 | 0.77 | >65 | > 100 | > 135 | –
CC1CC(C)CN(c2nnc(S(=O)(=O)C3CCCCC3)o2)C1 (mixture of isomers) | > 12.5 | 0.03 | >403 | > 100 | > 4000 | –
CC1CCCN(c2nnc(S(=O)(=O)C3CCCCC3)o2)C1 (racemic) | > 12.5 | 0.1 | >125 | > 100 | > 1000 | –
C[C@@H]1CN(c2nnc(S(=O)(=O)C3CCCCC3)o2)C[C@H](C)O1 | > 25 | 0.29 | >85 | > 100 | > 345 | –
Cc1ccc(C)c(CS(=O)(=O)c2nnc(N3CCOCC3)o2)c1 | 12.4 | 0.84 | 15 | 20.4 | 24 | IC50 (Plasmodium falciparum [6]): 13 µM; IC50 (Plasmodium falciparum [7]): 0.57 µM; Ratio IC50 [8]: 23; Ratio IC50 (Plasmodium falciparum [9]): 0.7; IC50 (Plasmodium falciparum [10]): 0.84 µM; Ratio IC50 [11]: 1; half-life [12]: 5 min; half-life [13]: 3 min; Papp A→B [14]: 39 ×10⁻⁶ cm/s
O=S(=O)(c1nnc(N2CCOCC2)o1)C1CCOCC1 | > 50 | 7.09 | >7 | > 100 | > 14 | –
O=S(=O)(c1nnc(N2C3CCC2COC3)o1)C1CCCCC1 | > 12.5 | 0.37 | >34 | > 100 | > 270 | –
O=S(=O)(c1nnc(N2CCC(C(F)(F)F)CC2)o1)C1CCCCC1 | 22.1 | 0.37 | 61 | > 100 | > 270 | –
O=S(=O)(CC12CC3CC(CC(C3)C1)C2)c1nnc(N2CCCCC2)o1 | 13.7 | 0.4 | 35 | 30.5 | 76 | –
O=S(=O)(c1nnc(N2CCOCC2)o1)C1CCCCCC1 | > 25 | 0.18 | >137 | > 100 | > 769 | Cmax [15]: 650 nM; Tmax [16]: 15 min; AUC(0-t) at 7.5 h [17]: 1.16 µM·h
CC1(C)CCN(c2nnc(S(=O)(=O)C3CCCCC3)o2)CC1 | > 25 | 0.15 | >171 | > 100 | > 1080 | –
O=S(=O)(c1nnc(N2CCOc3ccccc32)o1)C1CCCCC1 | 4.65 | 2.06 | 2.3 | 21.4 | 10 | –
CC1CCN(c2nnc(S(=O)(=O)C3CCCCC3)o2)CC1 | 39.3 | 0.22 | 182 | > 50 | > 227 | –
